Experimental data from patent US8178132B2, “Magnesium-containing food compositions” (Magceutics, Inc., priority 2007, dated 2012).

What was measured:
rats [1] = assay: Novel object recognition test in rats; type: in vivo, Sprague-Dawley rats
Method: In this example, the effect of magnesium supplementation on recognition memory was tested. Three groups of rats were used in these experiments: 1) young rats (three months old); aging rats (12-14 months old), and; 3) magnesium-treated aging rats (12-14 months old, diet supplemented with 6 mg/kg MgCl2 from 8 months of age). We used experimentally naive, female, Sprague-Dawley young […], aging (12-14 month old) and […] rats (Charles River) at the beginning of the behavior experiments. They were housed two per cage with continuous access to food and water under a 12:12 light-dark cycle, with light onset at 8:00 a.m. […] All experiments involving animals were approved by the Massachusetts Institute of Technology's and Tsinghua University Committees on Animal Care.
The three groups of rats were tested for recognition memory using an object recognition test with a single exposure to the object during training. The task is based on the natural tendency of rodents to explore new objects and tests the animals' memory capacity for distinguishing novel versus familiar objects.
Briefly, the rats were first individually habituated to the personnel and then to open-field arena during 2 weeks. […] The retention intervals were 10 min and 24 hours. Objects were cleaned thoroughly between trials with 20% ethanol solution to ensure the absence of olfactory cues. The particular objects for a given trial were randomly determined, but each object was used for only one trial per rat. Memory of the familiar object is associated with increased exploration of the new object and an exploration index (% correct) is calculated as new object inspection time/30.
In this example, the effect of magnesium supplementation on memory consolidation was studied. […]
Briefly, the rats were first individually habituated to the personnel and then to open-field arena during 2 weeks. […] The particular objects for a given trial were randomly determined, but each object was used for only one trial per rat. […]

rats [2] = system: rats
Method: Twenty 2-month old, male Sprague Dawley (SD) rats were housed in a temperature-controlled room (22° C. to 25° C.) with a dark period from 08:00 pm to 08:00 am daily. […] Over 7 days before the training and trial period began, each rat was handled and habituated to the maze and to Kellogg's Froot Loop cereal.
Each rat underwent a test of one trial, followed by an interval of 10-minutes, followed by another trial, and so on, for a total of 6 trials in one day. In each trial, each rat went through a sample run in the maze, followed by an interval of 15 seconds, followed by a choice run in the maze. In the sample run, the subject rat was forced to go to the left or to the right by the presence of a block, according to a pseudorandom sequence (with an equal number of left turns and right turns, and no more than two consecutive turns in the same direction). As a reward, Froot Loop cereal was available in the food well at the end of the run, regardless of the direction that was taken by virtue of the block. In the choice run, the block that had been present in the preceding sample run was removed, and the rat was allowed to choose to go to the left or to the right. As a reward, Froot Loop cereal was available in the food well at the end of the run, only when the rat had made a “correct choice” by choosing the direction opposite that taken in the preceding sample run. […]
On the first day (designated day 0) of the feeding of the two groups, as just described, each rat underwent a preliminary test of one trial, followed by an interval of 10 minutes, followed by another trial, and so on, for a total of 4 trials in one day. […] In this preliminary test, the choice accuracy level, or ratio of correct choices made, co, to the number of number of trials in the test, no, was determined for each rat. […]
Three groups of animals (young, aging, and magnesium-treated aging rats) were used. […] Spatial working memory was assessed using a T-maze non-matching-to-place task. […] Spatial working memory was first assessed on an elevated T-maze. […]

rats [3] = conditions: 2% in food for 8 days, cited from earlier work
[4] = system: mice genetically altered to present symptoms of Alzheimer's disease (AD); assay: Modified Morris water maze test in AD mice; type: in vivo; conditions: AD mice aged 13 months, compared with aricept
Method: Another group, the control group, of 10 mice that were genetically altered to present symptoms of AD were fed a Control Diet, a diet of normal solid food and water, for 30 days.
The pool used was a pool of water in a circular metal tank (150 cm in diameter and 50 cm in depth) having a water height of 30 cm and a water temperature that was maintained at ˜22° C. The pool was placed in a moderately lit area and surrounded by a black curtain. An acrylic platform (15 cm in diameter) was placed 2 cm below the surface of the water in the middle of one quadrant of the pool, equidistant from the center and the edge of the pool. Outside the pool, a cue was placed so as to be visible to a mouse in the maze, allowing a mouse to use it as a landmark for spatial orientation. The cue remained unchanged throughout the test period.
On the first day of the training and testing period, the water in the pool was transparent, such that the platform was visible. Each mouse was trained to swim towards the platform and to stand on the platform so as not to be submerged in the pool. […] The amount of time the mouse took to find the platform, referred to as “escape latency,” was recorded for each trial.
On the second day of the training and testing period, a small quantity of milk was added to the water in the pool, such that the pool was opaque and the platform was no longer visible. […]

Compound: [Cl-].[Cl-].[Mg+2] [MgCl2, magnesium chloride]
- novel object exploration preference, 10 minute retention interval (rats [1]; aging rats 12-14 months, 6 mg/kg MgCl2 from 8 months of age, single training): preferentially explored the novel object to the same extent as young rats
- novel versus familiar object discrimination, 24 hours retention (rats [1]; aging rats, 6 mg/kg MgCl2, single training): lose there ability to distinguish novel versus familiar objects
- preference for the novel object, 24-hour retention after spaced training (rats [1]; aging rats, two training sessions separated by 10 minutes): retained a high level of preference
- asymptotic choice accuracy level (rats [2]; after 8 days of training, 15 s delay): ~94%
- spatial working memory at increased delay (rats [2]; aging rats, MgCl2 diet, 2 and 5 min delays): significantly enhanced the performance of the aging rats at 2 and 5 min delays
- learning in non-matching-to-place task (rats [2]; aging rats, MgCl2 diet, 15 sec delay): performed significantly better from their first trials

Compound: [O]=[Mg] [magnesium oxide]
- side-effect (rats [3]): diarrhea and weight loss
- cognitive function (rats [3]; young (9-month) and aged (25-month) rats): some sign of improvement of cognitive function

Compound: CC12CC3CC(C)(C1)CC(N)(C3)C2 [memantine]
- reduction of the effects of AD on learning capacity, comparison of anti-AD drugs [4]: better at reducing the effects of AD on learning capacity than aricept
